# Laboratory results published in publication PMC6831561, “Pharmacological and Behavioral Effects of the Synthetic Cannabinoid AKB48 in Rats” (Frontiers in Neuroscience, 2019).
# Like-named read-outs stand apart in the source and are kept apart here.
# How the values were obtained:
# rats = assay: Open field test and gross behavior test; format: in vivo
# Description: An open field, used to measure locomotor activity, consisted of a wooden chamber (45 cm high) with a circular base (75 cm diameter). The floor was divided into 12 sections of similar area by two concentric circles and radial segments. The apparatus was placed in a sound-proof room, illuminated by a white 80 W lamp placed 200 cm over the center of the arena. Rat behavior in the test sessions was videotaped, analyzed, and scored. The following parameters were measured: time spent in the central or peripheral area, locomotor activity, and number of rearing reactions. Each of the behavioral parameters was scored manually by a tally counting method. The behavioral parameters scored were head twitches, wet dog shakes, grooming, licking, number of defecations, and tail rigidity. In the open field test, 21 male Sprague-Dawley rats were used and divided into three groups (n = 7 per group) and received different doses of AKB48 according to the CPP protocol. After treatment, the animals were leaved undisturbed for 10 min in the arena and then observed for 30 min.
# extracellular DA levels = assay: In vivo brain microdialysis of DA (NAc shell, NAc core, mPFC); parameters: species or system rats
# Excerpt: Male Sprague-Dawley rats were anaesthetized with isoflurane gas, and maintained under anaesthesia using a breathing tube under a scavenging system while placed in a stereotaxic apparatus and implanted with vertical dialysis probes (1.5 or 3 mm dialyzing portion for NAc or mPFC, respectively) in the NAc shell (A + 2.2, L + 1.0 from bregma, V-7.8 from dura) or core (A + 1.4; L + 1.6 from bregma; V-7.6 from dura) or in the mPFC (A + 3.7, L + 0.8 from bregma, V-5.0 from dura), according to the rat brain atlas ([Paxinos and Watson, 1998]).
# On the day following surgery, probes were perfused with Ringer’s solution (147 mM NaCl, 4 mM KCl, 2.2 mM CaCl2) at a constant rate of 1 μL/min. Dialyzate samples (10 μL) were injected into an HPLC equipped with a reverse-phase column (C8 3.5 μm, Waters, United States) and a coulometric detector (ESA, Coulochem II) to quantify DA. The first electrode of the detector was set at + 130 mV (oxidation), and the second at −175 mV (reduction). The composition of the mobile phase was: 50 mM NaH2PO4, 0.1 mM Na2-EDTA, 0.5 mM n-octyl sodium sulfate, 15% (v/v) methanol, pH 5.5. The sensitivity of the assay for DA was 5 fmol/sample. At the end of the experiment, animals were sacrificed and their brains removed and stored in formalin (8%) for histological examination to verify the correct placement of the microdialysis probe.
# [1] = AKB48 plasma pharmacokinetics (LC-MS/MS); format: in vivo, rats; details: for Tmax: male, Sprague-Dawley, rat, plasma, ip, read-out: time to peak plasma concentration (converted)
# Description: To correlate the pharmacological effects of AKB48 with its blood levels, we measured somatosensory responses (visual, acoustic, and tactile), body temperature, and mechanical analgesia in rats at timed intervals post-AKB48 injection (for behavioral tests, see before), while simultaneously obtaining serial blood specimens for analysis of AKB48.
# Sixteen male Sprague-Dawley rats were used in the study. Rats were anaesthetized with Equitesin [3 mL/kg intraperitoneal (ip); chloral hydrate 2.1 g, sodium pentobarbital 0.46 g, MgSO 1.06 g, propylene glycol 21.4 mL, ethanol (90%) 5.7 mL, H2O 3 mL] and implanted in the right jugular vein with a catheter, consisting of medical-grade tubing (Silastic, Dow Corning Corporation, MI, United States) according to the technique previously described ([Lecca et al., 2006]). A stable fixation in the mid-scapular region of the back was embedded by a polypropylene mesh (Evolution, BULEV, weight 48 g/mq, Dipromed, Italy). During the recovery period, at least 7 days after surgery, the catheters were flushed daily with 0.1 mL of gentamicin (40 mg/mL) and with heparinized saline (heparin 250 U/mL in 0.9% sterile saline). Fifteen days after recovery from surgery, rats were trained in handling, behavioral tests, and withdrawing blood from the catheter. Four groups of rats (n = 4) randomly received intraperitoneal injection of a single dose of AKB48 (0.1, 0.3, 0.5, or 3.0 mg/kg), and behavioral tests were conducted as previously reported in safety pharmacology studies (see before). Blood specimens (300 μL) were withdrawn via catheters immediately before the behavioral measurements (T = 0) and at 20, 40, 70, 140, and 195 min after drug injection. Blood specimens were collected into 1–mL vials containing sodium fluoride (4 mg/mL of blood) as preservative and anticoagulant. After each blood withdrawal, an equal volume of saline solution was infused via the intravenous catheter to maintain volume and osmotic homeostasis.
# A dispersive liquid-liquid microextraction (DLLME) was performed for sample purification. Three hundred microliter of blood samples were spiked with 10 μL of JWH-209 D9 as an internal standard, achieving the final concentration of 20 ng/mL, and deproteinized with 500 μL of methanol. The sample was centrifuged at 10,000 rpm for 10 min, and 500 μL surnatant was transferred into a 15 mL conical tube containing 1 mL of water, 0.2 g of NaCl, and 100 μL of carbonate buffer, pH 9. In order to obtain the formation of the cloudy solution, 350 μL of a mixture, chloroform/methanol 1:2.5, respectively the extractant and the disperser solvent, was rapidly added to obtain the formation of a turbid mixture. […]
# [2] = AKB48 0.1 and 0.5 mg/kg i.p., both doses
structure (smiles),measurement,setting,value
"CCCCCn1nc(C(=O)NC23CC4CC(CC(C4)C2)C3)c2ccccc21 [AKB48, N-(1-adamantyl)-1-pentyl-1H-indazole-3-carboxamide]",distance traveled in the central area,rats; AKB48 0.5 mg/kg,reduced
same,time spent in the central area,rats; AKB48 0.5 mg/kg,reduced
same,total distance traveled,rats; AKB48 0.5 mg/kg,reduced
same,amount of defecation,rats; AKB48 0.1 and 0.5 mg/kg i.p.,did not affect
same,grooming,rats; AKB48 0.1 and 0.5 mg/kg i.p.,did not affect
same,head shaking,rats; AKB48 0.1 and 0.5 mg/kg i.p.,did not affect
same,rearing,rats; AKB48 0.1 and 0.5 mg/kg i.p.,no effect
same,spontaneous locomotor activity,rats; AKB48 0.1 and 0.5 mg/kg i.p.,reduced
same,wet dog shaking,rats; AKB48 0.1 and 0.5 mg/kg i.p.,did not affect
same,licking,rats; [2],decrease
same,tail rigidity,rats; [2],significant increase
same,DA levels in the NAc shell,extracellular DA levels; AKB48 0.25 mg/kg i.p.,increased
same,max increase of DA in the NAc shell,"extracellular DA levels; AKB48 0.25 mg/kg ip, at 20 and 40 min",about 40%
same,DA levels in the mPFC,extracellular DA levels; AKB48 0.125 and 0.25 mg/kg i.p.,No significant effects
same,DA levels in the NAc shell,extracellular DA levels; AKB48 lower or higher doses (0.125 and 0.5 mg/kg i.p.),ineffective
same,plasma concentration versus dose,[1]; 0.1–3.0 mg/kg i.p.,rising linearly
same,plasmatic concentrations after the peak,[1]; for the following 120 min,remained quite stable
same,Tmax,[1]; higher doses (0.5 and 3.0 mg/kg i.p.),60 min
same,Tmax,[1]; low doses (0.1 and 0.3 mg/kg i.p.),30 min
